Experimental data: patent US5378838A, “Benzodiazepine cholecystokinin antagonists” (Merck & Co., Inc., priority 1993, dated 1995)
Read-outs that look alike come from different tables or passages of the source. Non-standard residues stand in square brackets, D forms with d. Residues, ends and D or L forms follow the SMILES beside them. *: point of attachment. sY = N[C@@H](Cc1ccc(OS(=O)(=O)O)cc1)C(=O)O; Cbz = O=C(OCc1ccccc1)*

Columns and labels:
[1] = tested on: CCK-B receptors; details: literature; cited from earlier work
[2] = tested on: CCK; details: literature; cited from earlier work
[3] = target: T1, CCK receptor (pancreas) (Rattus norvegicus, UniProt P30551); experiment: CCK Receptor Binding (Pancreas), inhibition of 125I-CCK-8 binding; design: species or system rat (male Sprague-Dawley)
T1 construct: The whole pancreas was dissected free of fat tissue and was homogenized; from tissue; host or cells: whole pancreas membranes of male Sprague-Dawley rats
T1 sequence (P30551 1-444): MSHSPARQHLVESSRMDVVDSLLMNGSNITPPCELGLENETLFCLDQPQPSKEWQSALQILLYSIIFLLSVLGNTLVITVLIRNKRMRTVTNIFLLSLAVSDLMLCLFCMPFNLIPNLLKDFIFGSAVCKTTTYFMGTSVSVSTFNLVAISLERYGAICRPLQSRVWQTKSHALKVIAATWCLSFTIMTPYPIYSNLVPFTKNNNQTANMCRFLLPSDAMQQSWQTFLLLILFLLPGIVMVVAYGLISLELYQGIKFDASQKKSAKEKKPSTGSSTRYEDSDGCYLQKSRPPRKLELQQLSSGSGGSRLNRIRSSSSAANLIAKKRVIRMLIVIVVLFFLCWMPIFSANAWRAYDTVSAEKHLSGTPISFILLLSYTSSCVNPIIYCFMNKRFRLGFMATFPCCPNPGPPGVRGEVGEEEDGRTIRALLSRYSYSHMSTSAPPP
Procedure: 1. CCK Receptor Binding (Pancreas)
Male Sprague-Dawley rats (150-200 g) were sacrificed by decapitation. The whole pancreas was dissected free of fat tissue and was homogenized in 25 volumes of ice-cold 10 mM Hepes buffer with 0.1% soya bean trypsin inhibitor (pH 7.4 at 25° C.) with a Kinematica Polytron. The homogenates were centrifuged at 47,800 g for 10 min. Pellets were resuspended in 10 volumes of binding assay buffer (20 mM Hepes, 1 mM EGTA, 5 mM MgCl2, 150 mM NaCl, bacitracin 0.25 mg/ml, soya bean trypsin inhibitor 0.1 mg/ml, and bovine serum albumin 2 mg/ml, pH 6.5 at 25° C.) using a teflon homogenizer, 15 strokes at 500 rpm. The homogenate was further diluted in binding assay buffer to give a final concentration of 0.5 mg original wet weight/l ml buffer. […] All assays were run in duplicate. The reaction mixtures were incubated at 25° C. for 2 hours and the reaction terminated by rapid filtration (Brandell 24 well cell harvester) over Whatman GF/C filters, washing 3×4 mls with ice-cold 100 mM NaCl. The radioactivity on the filters was counted with a LKB gamma counter.
Drug displacement studies were performed with at least 10 concentrations of compounds of formula 1 and the IC50 values were determined by regression analysis.

[4] = target: T2, CCK receptor (brain) (Cavia porcellus, UniProt H0VZC5); experiment: CCK Receptor Binding (Brain), inhibition of 125I-CCK-8 binding; design: species or system guinea pig (male Hartley); details: guinea pig cortex, 50 pM 125I-CCK-8, pH 6.5, 25° C., 2 hours
T2 construct: the cortex was removed and homogenized in 25 mL ice-cold 0.32M sucrose; from tissue; host or cells: cortex P2 membranes of male Hartley guinea pigs
T2 sequence (H0VZC5 1-426): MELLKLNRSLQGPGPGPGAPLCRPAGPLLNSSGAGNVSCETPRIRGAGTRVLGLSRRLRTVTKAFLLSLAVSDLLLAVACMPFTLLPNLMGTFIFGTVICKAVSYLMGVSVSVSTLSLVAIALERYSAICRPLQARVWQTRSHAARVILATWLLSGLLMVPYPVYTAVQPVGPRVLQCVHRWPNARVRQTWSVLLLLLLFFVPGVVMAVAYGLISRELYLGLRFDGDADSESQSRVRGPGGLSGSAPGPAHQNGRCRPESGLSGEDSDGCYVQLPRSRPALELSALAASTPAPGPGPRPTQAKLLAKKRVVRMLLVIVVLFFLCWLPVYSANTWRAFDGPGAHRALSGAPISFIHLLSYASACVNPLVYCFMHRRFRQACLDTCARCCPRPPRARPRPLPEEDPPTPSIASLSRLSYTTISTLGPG
Procedure: CCK-8 sulphated was radiolabelled and the binding was performed according to the description for the pancreas method with minor modifications.
Male Hartley guinea pigs (300-500g) were sacrificed by decapitation and the cortex was removed and homogenized in 25 mL ice-cold 0.32M sucrose. The homogenates were centrifuged at 1000 g for 10 minutes and the resulting supernatant was recentrifuged at 20,000 g for 20 minutes. […] All assays were run in duplicate. The reaction mixtures were incubated at 25° C. for 2 hours and then the reaction was terminated on Whatman GF/C filters by rapid filtration (Brandell 24 well cell Harvester) with 3×5 ml washes of cold 100 mM NaCl. The radioactivity on the filters was then counted with a LKB gamma counter.
Drug displacement studies were performed with at least 10 concentrations of compounds of formula 1 and the IC50 values were determined by regression analysis. IC50 refers to the concentration of the compound required to inhibit 50% of specific binding of ^125 I-CCK-8.

SMILES	IC50 [3] [µM]	IC50 [4] [µM]	also measured
Cc1cccc(NC(=O)N[C@@H]2N=C(c3ccccc3)c3ccccc3N(C)C2=O)c1 [(R)-N-(2,3-dihydro-1-methyl-2-oxo-5-phenyl-1H-1,4-benzodiazepin-3-yl)-N^1-(3-methylphenyl) urea]			antagonist of CCK-B receptors (in words) [1]: potent and selective antagonist of CCK-B receptors
CSCC[C@H](NC(=O)[C@H](Cc1ccc(OS(=O)(=O)O)cc1)NC(=O)OCc1ccccc1)C(=O)NCC(=O)N[C@@H](Cc1c[nH]c2ccccc12)C(=O)N[C@@H](CCSC)C(=O)N[C@@H](CC(=O)O)C(N)=O [Cbz-Tyr(SO3 H)-Met-Gly-Trp-Met-Asp-NH2] (Cbz-[sY]MGWMD-NH2)			CCK antagonist / agonist activity (in words) [2]: partial agonist
CN1C(=O)[C@H](NC(=O)Nc2ccc3c(c2)CCC(N)(C(=O)O)C3)N=C(c2ccccc2)c2ccccc21 (stereo partly drawn) [Example 20, N-{(3R)-1,3-Dihydro-1-methyl-2-oxo-5-phenyl-1H-1,4-benzodiazepin-3-yl}-N'-{[6-(2-(R,S)-amino-1,2,3,4-tetrahydro-2-naphthoic acid)]-urea}]	> 3	3.52	
COC(=O)C1(NC(=O)OC(C)(C)C)CCc2c(cccc2NC(=O)N[C@@H]2N=C(c3ccccc3)c3ccccc3N(C)C2=O)C1 (stereo partly drawn) [Example 21, N-{(3R)-1,3-Dihydro-1-methyl-2-oxo-5-phenyl-1H-1,4-benzodiazepin-3-yl}-N'-{[5-(methyl-2-(R,S)-tert-butyloxycarbonylamino-1,2,3,4-tetrahydro-2-naphthoate)]-urea}]		1.69	IC50 ([3]; read-out: IC50 125I-CCK Pancreas, rat pancreas, 50 pM 125I-CCK-8, pH 6.5, 25° C., 2 hours): > 3 µM
COC(=O)C1(N)CCc2c(cccc2NC(=O)N[C@@H]2N=C(c3ccccc3)c3ccccc3N(C)C2=O)C1 (stereo partly drawn) [Example 22, N-{(3R)-1,3-Dihydro-1-methyl-2-oxo-5-phenyl-1H-1,4-benzodiazepin-3-yl}-N'-{[5-(methyl-2-(R,S)-amino-1,2,3,4-tetrahydro-2-naphthoate)]-urea}]	> 3	2.16	
CN1C(=O)[C@H](NC(=O)Nc2cccc3c2CCC(N)(C(=O)O)C3)N=C(c2ccccc2)c2ccccc21 (stereo partly drawn) [Example 23, N-{(3R)-1,3-Dihydro-1-methyl-2-oxo-5-phenyl-1H-1,4-benzodiazepin-3-yl}-N'-{[5-(2-(R,S)-amino-1,2,3,4-tetrahydro-2-naphthoic acid)]-urea}]	> 3	> 3	
CCCC(=O)Nc1nc2c(ncn2[C@@H]2O[C@@H]3COP(=O)(O)O[C@H]3[C@H]2OC(=O)CCC)c(=O)[nH]1 [dibutyryl cyclic GMP]			CCK antagonist / agonist activity (in words) [2]: the most potent
